Legend:
CYP26B1 = target: T1, CYP26B1 (Homo sapiens, UniProt Q9NR63); assay: Microsome-based inhibitor assay (microsomes from CYP26B1-transfected HeLa cells); format: biochemical; settings: 5µg microsomal fraction, 1mM NADPH, 1 hour at 37°C; Figure 3
T1 sequence (Q9NR63 1-512): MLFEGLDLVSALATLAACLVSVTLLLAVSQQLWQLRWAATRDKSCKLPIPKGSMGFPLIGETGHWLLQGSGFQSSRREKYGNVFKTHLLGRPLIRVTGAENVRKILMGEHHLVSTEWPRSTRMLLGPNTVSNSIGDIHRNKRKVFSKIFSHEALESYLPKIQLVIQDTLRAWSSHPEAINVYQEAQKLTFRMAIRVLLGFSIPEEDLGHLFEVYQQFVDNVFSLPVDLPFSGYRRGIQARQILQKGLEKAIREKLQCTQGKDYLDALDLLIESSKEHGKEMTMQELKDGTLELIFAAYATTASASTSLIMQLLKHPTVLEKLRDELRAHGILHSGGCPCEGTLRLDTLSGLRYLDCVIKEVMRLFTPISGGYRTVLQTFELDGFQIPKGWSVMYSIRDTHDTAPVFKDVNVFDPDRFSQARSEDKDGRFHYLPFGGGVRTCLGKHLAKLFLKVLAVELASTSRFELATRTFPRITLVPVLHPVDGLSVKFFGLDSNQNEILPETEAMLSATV
Protocol: This assay used cell-free microsomes to measure the ability of a test compound to inhibit the metabolism of RA. Microsomal fractions were obtained from CYP26B1 cDNA stably transfected HeLa cells by differential centrifugation of cell lysates. Assays were carried out in 48-well plates containing 5µg of microsomal fraction in Microsome Assay Buffer, containing 0.04µCi [^3H]-RA in the presence of increasing concentrations of a test compound, as described above for the HeLa cell-based assay. Reactions were initiated by addition of 1mM NADPH, and carried out for 1 hour at 37°C. Reactions were stopped, retinoids extracted, and data were collected and analyzed as described above for the HeLa cell-based assay.

RAR = RAR transcriptional activation assay (RARE-luc MCF-7 cells); format: cell-based; settings: 0.1 nM to 10 µM, 24 hours of treatment; Figure 5
Description: This retinoid transcriptional activity assay measures the ability of a test compound to induce expression of a RA-sensitive reporter construct. This assay utilizes MCF-7 cells stably transduced with a gene construct comprising 4 tandem RA-response elements linked to a promoter driving transcriptional expression of the firefly luciferase encoding mRNA (RARE-luc). This construct serves as a sensitive reporter of retinoid-like activity.
RARE-luc transduced MCF-7 cells were maintained in a RPMI-1640 medium containing 10% FBS. Cells were grown in 96-well plates, and treated with the test compound diluted in DMSO in duplicate at 0.1 nM, 1 nM, 10 nM, 100 nM, 1 µM and 10 µM final concentrations. As a positive control for reporter activation, cells were also treated with RA diluted in DMSO at the same concentrations. DMSO treatment alone served as a negative control. After 24 hours of treatment, cells were harvested lysis buffer (Molecular Devices, San Jose, USA) and luciferase activity in cell lysates were read using a luminometer.

ectopic bone formation = assay: Genetic mouse model of FOP, pinch injury-induced ectopic bone formation, micro-CT; format: in vivo, Acvr1^(cR206H/+);Pdgfra-Cre+ mice; settings: for Mean ectopic bone volume D14 (mm^3) / Mean ectopic bone volume D14 [percent change from vehicle]: day 14; for Mean ectopic bone volume D22 (mm^3) / Mean ectopic bone volume D22 [percent change from vehicle]: day 22
Description: Acvr1^(cR206H/+) mice were obtained from the International Fibrodysplasia Ossificans Progressiva Association (IFOPA, North Kansas City, MO, USA). These animals harbour a Cre recombinase-inducible Acvr1 transgenic allele, which causes a switch from wild-type mouse ACVR1 protein expression to that of a chimeric mouse/human protein containing the R206H mutation seen in >95% of FOP patients. These animals were intercrossed with Pdgfra-Cre expressing mice (C57BL/6-Tg(PDGFRA-cre)1Clc/J mice, available through The Jackson Laboratory, Bar Harbor, ME, USA) which activates Cre recombination in fibro-adipogenic precursors, currently believed to be the cells of origin for FOP (Lees-Shepard, J.B., et al (2018) Nat Commun 9, 471.). Resulting study animals (ACVR1^(R206H/+);Pdgfra-Cre+) are susceptible to injury-induced ectopic bone formation. These animals were subjected to a bilateral gastrocnemius pinch procedure under anaesthesia, whereby a Halsted-mosquito hemostat (product#13008-12, Fine Science Tools Inc., North Vancouver, BC, Canada) is used to compress the gastrocnemius muscle, at its widest part, to approximately 2mm for 5s, and then released. This injury elicits robust ectopic bone formation within 10-14 days (for description of procedure see, Lyu, H., et al. (2021). Biomedicines 9(6).). […] Micro-CT imaging was performed on days 14 (under anaesthesia) and at study termination (day 22), as outlined above in Example 7. Sites of ectopic bone formation in the area of the injury were volumetrically quantified using Class stratification in Imalytics Preclinical software (version 3.0.2.3, Gremse-IT GmbH, Aachen, Germany) from DICOM renderings. Using this model, the utility of compound 1 in inhibiting bone formation in a genetic mouse model of FOP was illustrated (see Figure 11 and Table 3 below). Table 3. Effect of different doses of compound 1 on mean ectopic bone volume at 14 and 22 days following initiation of treatment

CC(C)(C)c1cccc(-c2cc3cc(/C=C/C(=O)O)ccc3[nH]2)c1 [Compound 1, (E)-3-(2-(3-(tert-butyl)phenyl)-1H-indol-5-yl)acrylic acid]
IC50 (CYP26B1): 5.9 nM
luciferase activity (RAR): did not induce luciferase activity significantly
Mean ectopic bone volume D14 (mm^3) (ectopic bone formation; 2mg/kg BID): 2.92 ± 3.76 mm^3
Mean ectopic bone volume D14 [percent change from vehicle] (ectopic bone formation; 2mg/kg BID): -76.9%
Mean ectopic bone volume D22 (mm^3) (ectopic bone formation; 2mg/kg BID): 2.62 ± 4.36 mm^3
Mean ectopic bone volume D22 [percent change from vehicle] (ectopic bone formation; 2mg/kg BID): -77.9%
Mean ectopic bone volume D14 (mm^3) (ectopic bone formation; 4mg/kg BID): 0.20 ± 0.47 mm^3
Mean ectopic bone volume D14 [percent change from vehicle] (ectopic bone formation; 4mg/kg BID): -98.5%
Mean ectopic bone volume D22 (mm^3) (ectopic bone formation; 4mg/kg BID): 0.00 ± 0.00 mm^3
Mean ectopic bone volume D22 [percent change from vehicle] (ectopic bone formation; 4mg/kg BID): -100%
Mean ectopic bone volume D14 (mm^3) (ectopic bone formation; 7.5mg/kg BID): 0.31 ± 0.45 mm^3
Mean ectopic bone volume D14 [percent change from vehicle] (ectopic bone formation; 7.5mg/kg BID): -97.5%
Mean ectopic bone volume D22 (mm^3) (ectopic bone formation; 7.5mg/kg BID): 0.07 ± 0.18 mm^3
Mean ectopic bone volume D22 [percent change from vehicle] (ectopic bone formation; 7.5mg/kg BID): -99.4%
Mean ectopic bone volume D14 (mm^3) (ectopic bone formation; 10mg/kg BID): 1.28 ± 2.23 mm^3
Mean ectopic bone volume D14 [percent change from vehicle] (ectopic bone formation; 10mg/kg BID): -89.9%
Mean ectopic bone volume D22 (mm^3) (ectopic bone formation; 10mg/kg BID): 1.40 ± 2.65 mm^3
Mean ectopic bone volume D22 [percent change from vehicle] (ectopic bone formation; 10mg/kg BID): -88.2%
